The supplement of paper PMC11208160

Assay: recombinant UMI read abundance after kanamycin selection (control-corrected) (log10(CPM+1)); higher = more efficient recombination; extreme values may be limits of the assay; sequences stand for … in AGTGCAGAGAAAATCGGCCAGTTTTCTCTGCCTGCAGTCCGCATGCCGTGGGACCCCTTGGGTTCTAACCTGTTGCCTAGATTTATGCAGCGGACTGCCTTTCTCCCAAAGTGATAAACCGG…AGGTTGGTTTCACT; site = the 11-nt donor
Procedure, shortened: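 For the IS621 bridge recombinase, a pooled Escherichia coli screen tested donor and donor-binding-loop pairs. Cells received the pair library together with a target plasmid encoding a fixed target and T7-inducible recombinase, then went onto IPTG (0.07 mM) plus kanamycin or unselected plates in duplicate. After PCR across the donor–target junction and sequencing, recombinant UMI counts were normalized to CPM, averaged, and scaled by control-derived factors. Each value is given as log10(CPM+1).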
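Also: IS621 bridge recombinase in Escherichia coli cells against a fixed T5 target plasmid.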

| Sequence | recombinant UMI read abundance (log10) |
| --- | --- |
| GGCCATCCATGGACCGGTTTTCCCGGTAATCCGTATTTGAA (site GGCAATCCTTT) | 0.00447 |
| GGCCATCCATGGACCGGTTTTCCCGGTAATCCGTATTTGAA (site GGCCATCCTTT) | 0.00888 |
| GGCCATCCATGGACCGGTTTTCCCGGTAATCCGTATTTGAA (site GGCGATCCTTT) | 0.00507 |
| GGCCATCCATGGACCGGTTTTCCCGGTAATCCGTATTTGAA (site GGCTATCCTTT) | 0.0589 |
| GGCCCCCCATGGACCGGTTTTCCCGGTAATCCGTATTTGTT (site GGCCACCCTAA) | 0.0272 |
| GGCCCCCCATGGACCGGTTTTCCCGGTAATCCGTATTTGTT (site GGCCCCCCTAA) | 0.0352 |
| GGCCCCCCATGGACCGGTTTTCCCGGTAATCCGTATTTGTT (site GGCCGCCCTAA) | 0.0281 |
| GGCCCCCCATGGACCGGTTTTCCCGGTAATCCGTATTTGTT (site GGCCTCCCTAA) | 0.0156 |
| GGCCTAGCATGGACCGGTTTTCCCGGTAATCCGTATTTGTT (site AGCCTAGCTAA) | 0 |
| GGCCTAGCATGGACCGGTTTTCCCGGTAATCCGTATTTGTT (site CGCCTAGCTAA) | 0.0146 |
| GGCCTAGCATGGACCGGTTTTCCCGGTAATCCGTATTTGTT (site GGCCTAGCTAA) | 0.00233 |
| GGCCTAGCATGGACCGGTTTTCCCGGTAATCCGTATTTGTT (site TGCCTAGCTAA) | 0.0108 |
| GGCGATACATGGACCGGTTTTCCCGGTAATCCGTATTTGCT (site GGCGATACTAG) | 1.5 |
| GGCGCTACATGGACCGGTTTTCCCGGTAATCCGTATTTGAT (site GGCGCTACTAT) | 0.866 |
| GGCGGCTCATGGACCGGTTTTCCCGGTAATCCGTATTTGTG (site GGCGGCTCTCA) | 1.23 |
| GGCGTGGCATGGACCGGTTTTCCCGGTAATCCGTATTTGGT (site GGAGTGGCTAC) | 0.00572 |
| GGCGTGGCATGGACCGGTTTTCCCGGTAATCCGTATTTGGT (site GGCGTGGCTAC) | 0.511 |
| GGCGTGGCATGGACCGGTTTTCCCGGTAATCCGTATTTGGT (site GGGGTGGCTAC) | 0.00519 |
| GGCGTGGCATGGACCGGTTTTCCCGGTAATCCGTATTTGGT (site GGTGTGGCTAC) | 0.00854 |
| GGCTAGACATGGACCGGTTTTCCCGGTAATCCGTATTTGCC (site GGATAGACTGG) | 0 |
| GGCTAGACATGGACCGGTTTTCCCGGTAATCCGTATTTGCC (site GGCTAGACTGG) | 0.563 |
| GGCTAGACATGGACCGGTTTTCCCGGTAATCCGTATTTGCC (site GGGTAGACTGG) | 0 |
| GGCTAGACATGGACCGGTTTTCCCGGTAATCCGTATTTGCC (site GGTTAGACTGG) | 0 |
| GGCTAGACATGGACCGGTTTTCCCGGTAATCCGTATTTGTG (site GGCTAGACTCA) | 0.659 |
| GGCTATCCATGGACCGGTTTTCCCGGTAATCCGTATTTGAA (site GGCAATCCTTT) | 0.00767 |

| Sequence | recombinant UMI read abundance (log10) |
| --- | --- |
| GGCTATCCATGGACCGGTTTTCCCGGTAATCCGTATTTGAA (site GGCCATCCTTT) | 0.0272 |
| GGCTATCCATGGACCGGTTTTCCCGGTAATCCGTATTTGAA (site GGCGATCCTTT) | 0.0136 |
| GGCTATCCATGGACCGGTTTTCCCGGTAATCCGTATTTGAA (site GGCTATCCTTT) | 0.133 |
| GGCTCCTCATGGACCGGTTTTCCCGGTAATCCGTATTTGTA (site GGCTCCTCTTA) | 1.84 |
| GGCTGGCCATGGACCGGTTTTCCCGGTAATCCGTATTTGAT (site GGCTGGCCTAT) | 0.0261 |
| GGGAAAACATGGACCGGTTTTCCCGGTAATCCGTATTTGCT (site GAGAAAACTAG) | 0 |
| GGGAAAACATGGACCGGTTTTCCCGGTAATCCGTATTTGCT (site GCGAAAACTAG) | 0.0308 |
| GGGAAAACATGGACCGGTTTTCCCGGTAATCCGTATTTGCT (site GGGAAAACTAG) | 0 |
| GGGAAAACATGGACCGGTTTTCCCGGTAATCCGTATTTGCT (site GTGAAAACTAG) | 0 |
| GGGAAGACATGGACCGGTTTTCCCGGTAATCCGTATTTGCA (site AGGAAGACTTG) | 0.813 |
| GGGAAGACATGGACCGGTTTTCCCGGTAATCCGTATTTGCA (site CGGAAGACTTG) | 0 |
| GGGAAGACATGGACCGGTTTTCCCGGTAATCCGTATTTGCA (site GGGAAGACTTG) | 1.96 |
| GGGAAGACATGGACCGGTTTTCCCGGTAATCCGTATTTGCA (site TGGAAGACTTG) | 1.19 |
| GGGAAGACATGGACCGGTTTTCCCGGTAATCCGTATTTGCT (site AGGAAGACTTG) | 0 |
| GGGAAGACATGGACCGGTTTTCCCGGTAATCCGTATTTGCT (site GGGAAGACTAG) | 1.69 |
| GGGAATACATGGACCGGTTTTCCCGGTAATCCGTATTTGAG (site GGGAATACTCT) | 1.35 |
| GGGAATCCATGGACCGGTTTTCCCGGTAATCCGTATTTGTC (site CGGAATCCTAA) | 0.00512 |
| GGGAATCCATGGACCGGTTTTCCCGGTAATCCGTATTTGTC (site GGGAATCCTGA) | 0 |
| GGGACAACATGGACCGGTTTTCCCGGTAATCCGTATTTGTG (site GGGACAACTCA) | 0.439 |
| GGGACATCATGGACCGGTTTTCCCGGTAATCCGTATTTGGA (site GGGACATCTTC) | 1.52 |
| GGGACGTCATGGACCGGTTTTCCCGGTAATCCGTATTTGTG (site GGGACGTCTCA) | 2.05 |
| GGGCAATCATGGACCGGTTTTCCCGGTAATCCGTATTTGTC (site GGGCAATCTGA) | 2.8 |
| GGGCAATCATGGACCGGTTTTCCCGGTAATCCGTATTTGTG (site GGGCAATCTCA) | 1.92 |
| GGGCATGCATGGACCGGTTTTCCCGGTAATCCGTATTTGAG (site GGGCATGCTCT) | 1.57 |
| GGGCATGCATGGACCGGTTTTCCCGGTAATCCGTATTTGGT (site GAGCATGCTAC) | 0.336 |

| Sequence | recombinant UMI read abundance (log10) |
| --- | --- |
| GGGCATGCATGGACCGGTTTTCCCGGTAATCCGTATTTGGT (site GCGCATGCTAC) | 0.0126 |
| GGGCATGCATGGACCGGTTTTCCCGGTAATCCGTATTTGGT (site GGGCATGCTAC) | 1.33 |
| GGGCATGCATGGACCGGTTTTCCCGGTAATCCGTATTTGGT (site GTGCATGCTAC) | 0.161 |
| GGGCCAACATGGACCGGTTTTCCCGGTAATCCGTATTTGTG (site GGGCCAACTCA) | 0 |
| GGGCCACCATGGACCGGTTTTCCCGGTAATCCGTATTTGCA (site GGGACACCTTG) | 0 |
| GGGCCACCATGGACCGGTTTTCCCGGTAATCCGTATTTGCA (site GGGCCACCTTG) | 0 |
| GGGCCACCATGGACCGGTTTTCCCGGTAATCCGTATTTGCA (site GGGGCACCTTG) | 0 |
| GGGCCACCATGGACCGGTTTTCCCGGTAATCCGTATTTGCA (site GGGTCACCTTG) | 0.00812 |
| GGGCCTACATGGACCGGTTTTCCCGGTAATCCGTATTTGCT (site GGGCCTACTAG) | 1.86 |
| GGGCCTGCATGGACCGGTTTTCCCGGTAATCCGTATTTGTG (site GGGCCTGCTCA) | 0.38 |
| GGGCGAACATGGACCGGTTTTCCCGGTAATCCGTATTTGGA (site GGGCGAACTTC) | 0.799 |
| GGGCGTCCATGGACCGGTTTTCCCGGTAATCCGTATTTGCA (site GGGCGTCCTTG) | 2.59 |
| GGGCGTCCATGGACCGGTTTTCCCGGTAATCCGTATTTGGT (site GGGCGTCCTAC) | 0 |
| GGGCTTGCATGGACCGGTTTTCCCGGTAATCCGTATTTGGA (site GGGCTTGCTTC) | 0.564 |
| GGGGAATCATGGACCGGTTTTCCCGGTAATCCGTATTTGGT (site GGGGAATCTAC) | 0.628 |
| GGGGAGGCATGGACCGGTTTTCCCGGTAATCCGTATTTGTG (site GAGGAGGCTCA) | 0 |
| GGGGAGGCATGGACCGGTTTTCCCGGTAATCCGTATTTGTG (site GCGGAGGCTCA) | 0.00803 |
| GGGGAGGCATGGACCGGTTTTCCCGGTAATCCGTATTTGTG (site GGGGAGGCTCA) | 0.851 |
| GGGGAGGCATGGACCGGTTTTCCCGGTAATCCGTATTTGTG (site GTGGAGGCTCA) | 0.134 |
| GGGGAGTCATGGACCGGTTTTCCCGGTAATCCGTATTTGCC (site AGGGAGTCTGG) | 1.14 |
| GGGGAGTCATGGACCGGTTTTCCCGGTAATCCGTATTTGCC (site CGGGAGTCTGG) | 0 |
| GGGGAGTCATGGACCGGTTTTCCCGGTAATCCGTATTTGCC (site GGGGAGTCTGG) | 1.78 |
| GGGGAGTCATGGACCGGTTTTCCCGGTAATCCGTATTTGCC (site TGGGAGTCTGG) | 1.02 |
| GGGGCACCATGGACCGGTTTTCCCGGTAATCCGTATTTGCG (site GGGGCACCTAG) | 0.0129 |
| GGGGCACCATGGACCGGTTTTCCCGGTAATCCGTATTTGCG (site GGGGCACCTCG) | 0.0566 |
